The record followed here is ChEMBL document CHEMBL2311481, “Synthesis, characterization and antimalarial activity of quinoline-pyrimidine hybrids” (Bioorg Med Chem, 2013).

A short description of data set [1]: Aqueous solubility in pH 5.5 PBS buffer at 37 degC incubated for 24 hrs by HPLC method. The class given is physicochemical. As to conditions: pH 5.5, 24 h.
Data set [2] in a line: Partition coefficient, log D of the compound using n-octanol/PBS buffer system at pH 7.4 by HPLC method. The data set is classed as physicochemical.
Data set [3] is described as follows: Partition coefficient, log D of the compound using n-octanol/PBS buffer system at pH 5.5 by HPLC method. The data set is classed as physicochemical.
Data set [4] relates to Plasmodium falciparum. The experiment in a line: Antimalarial activity against chloroquine-resistant Plasmodium falciparum Dd2 asexual erythrocyte forms after 48 hrs by parasite LDH assay. The class given is functional, organism-based. As to conditions: Dd2, 48 h.
Data set [5] relates to Plasmodium falciparum. The experiment in a line: microbe, parasite or virus in culture. As to conditions: D10, 48 h.
Data set [6] can be described thus: Solubility in octanol at pH 5.5. Conditions: buffer. The class given is physicochemical.
Data set [7] can be described thus: Solubility in octanol at pH 7.4. The class given is physicochemical.
Another data set relates to CHO. The experiment in a line: Cytotoxicity against CHO cells after 48 hrs by MTT assay. The data set is classed as cell-based. Conditions: Cricetulus griseus.
A short description of data set [8]: Aqueous solubility in pH 7.4 PBS buffer at 37 degC incubated for 24 hrs by HPLC method. The data set is classed as physicochemical. Conditions: pH 7.4, 24 h.
A short description of data set [9]: Selectivity index, ratio of IC50 for CHO cells to IC50 for chloroquine-susceptible Plasmodium falciparum D10. As to conditions: hamster, read-out: Ratio IC50. The data set is classed as toxicity, cell-based.
Data set [10] has as its system Plasmodium falciparum. The data set can be described thus: Resistance index, ratio of IC50 for chloroquine-resistant Plasmodium falciparum Dd2 to IC50 for chloroquine-susceptible Plasmodium falciparum D10. The class given is functional.
Data set [11] in a line: Dissociation constant, pKa of the compound at pH 7.4.
Where [12] appears, read: n-octanol/PBS buffer, read-out: logD.

Values after ≈ are worked out from the molar mass of the structure shown.

For orientation: solubility means the dissolved amount per volume that the medium holds. A high value points to much dissolved substance. The term logD denotes the decadic logarithm of the distribution of all forms, ionised or not, between an organic phase and buffer at a given pH. By IC50 is commonly meant the concentration that gives 50% inhibition. Read a high IC50 as weaker potency in that assay. For `Nc1cc(OCCNc2ccnc3cc(Cl)ccc23)nc(N)n1`, the solubility amounted to 0.3 µM (≈ 0.0992 µg/mL) in [1], 0.15 µM (≈ 0.0496 µg/mL) in data set [6], 1.84 µM (≈ 0.609 µg/mL) in data set [7] and 0.23 µM (≈ 0.0761 µg/mL) in data set [8]. Also, the results for the logD in data set [2] (setting [12]) and in data set [3] (setting [12]) were 0.9 and -0.3, respectively. Also, the concentration for half-maximal inhibition (IC50) in the data set with Plasmodium falciparum [4] was determined as 580 nM; in the data set on Plasmodium falciparum [5], 230 nM; in the data set with CHO, 174 µM. Also, the selectivity ratio in data set [9] was 764. The “Ratio IC50” value with Plasmodium falciparum [10] is given as 2.6.

For `CC(COc1cc(N)nc(N)n1)Nc1ccnc2cc(Cl)ccc12` (stereo unspecified), the solubility in data set [1] amounted to 1.45 µM (≈ 0.5 µg/mL); in [6] it was 0.07 µM (≈ 0.0241 µg/mL); in data set [7] it was 2.14 µM (≈ 0.738 µg/mL); in [8], 0.25 µM (≈ 0.0862 µg/mL). Besides, the log distribution coefficient (logD) in data set [2] (setting [12]) was 0.92; in data set [3] (setting [12]), -1.34. The IC50 stood at 543 nM with Plasmodium falciparum [4], 243 nM in the data set with Plasmodium falciparum [5] and 250 µM in the data set on CHO. For the same compound, in [9], the selectivity ratio came to 1030. Besides, the “Ratio IC50” value with Plasmodium falciparum [10] is recorded as 2.3.

For the compound `Nc1cc(OCCCNc2ccnc3cc(Cl)ccc23)nc(N)n1`, the solubility in [1] was found to be 0.31 µM (≈ 0.107 µg/mL); in data set [6], 0.25 µM (≈ 0.0862 µg/mL); in data set [7], 1.2 µM (≈ 0.414 µg/mL); in [8], 0.12 µM (≈ 0.0414 µg/mL). Besides, the logD in data set [2] (setting [12]) was 1.01; in data set [3] (setting [12]), -0.08. In addition, the IC50 in the data set with Plasmodium falciparum [4] was determined as 467 nM; with Plasmodium falciparum [5] it was 217 nM; in the data set on CHO it was 107 µM. Moreover, the selectivity ratio in data set [9] worked out at 494. Further, in the data set on Plasmodium falciparum [10], the “Ratio IC50” value came to 2.2.

Consider `Nc1cc(OCCOCCNc2ccnc3cc(Cl)ccc23)nc(N)n1`, for which the solubility in [1] amounted to 1.17 µM (≈ 0.439 µg/mL); in data set [6], 0.6 µM (≈ 0.225 µg/mL); in data set [7], 0.44 µM (≈ 0.165 µg/mL); in data set [8], 0.84 µM (≈ 0.315 µg/mL). Moreover, the logD in data set [2] (setting [12]) is -0.28; in data set [3] (setting [12]) it was -0.29. In addition, the IC50 in the data set with Plasmodium falciparum [4] amounted to 4100 nM; with Plasmodium falciparum [5] it was 837 nM; in the data set on CHO it was 250 µM. The selectivity ratio in [9] came to 303. Further, the “Ratio IC50” value with Plasmodium falciparum [10] is listed as 5.

As to `CCC(COc1cc(N)nc(N)n1)Nc1ccnc2cc(Cl)ccc12` (stereo unspecified), the solubility was 0.04 µM (≈ 0.0144 µg/mL) in [1], 0.49 µM (≈ 0.176 µg/mL) in data set [6], 5.68 µM (≈ 2.04 µg/mL) in [7] and 0.02 µM (≈ 0.00718 µg/mL) in [8]. In addition, the logD was found to be 2.47 in [2] (setting [12]) and 1.07 in data set [3] (setting [12]). In addition, the IC50 amounted to 210 nM in the data set with Plasmodium falciparum [4], 157 nM in the data set on Plasmodium falciparum [5] and 156 µM in the data set with CHO. The selectivity ratio in data set [9] came to 995. Besides, in the data set with Plasmodium falciparum [10], the “Ratio IC50” value was found to be 1.4.

As for `Nc1cc(NCCNc2ccnc3cc(Cl)ccc23)nc(N)n1`, the solubility in data set [1] stood at 0.52 µM (≈ 0.171 µg/mL); in data set [6], 0.45 µM (≈ 0.148 µg/mL); in data set [7], 0.72 µM (≈ 0.237 µg/mL); in data set [8], 0.12 µM (≈ 0.0396 µg/mL). In addition, the figures for the logD in [2] (setting [12]) and in data set [3] (setting [12]) were 0.78 and -0.07, respectively. Further, the IC50 worked out at 1020 nM in the data set on Plasmodium falciparum [4], 317 nM in the data set on Plasmodium falciparum [5] and 190 µM in the data set with CHO. Moreover, the selectivity ratio in data set [9] was 607. Besides, the “Ratio IC50” value with Plasmodium falciparum [10] came to 3.2.

`Nc1cc(NCCCNc2ccnc3cc(Cl)ccc23)nc(N)n1`: the solubility in [1] is 0.88 µM (≈ 0.303 µg/mL); in [6], 0.16 µM (≈ 0.055 µg/mL); in data set [7], 0.79 µM (≈ 0.272 µg/mL); in [8], 0.62 µM (≈ 0.213 µg/mL). Further, the logD in [2] (setting [12]) is 0.11; in data set [3] (setting [12]) it was -0.74. Besides, the IC50 was determined as 1210 nM in the data set on Plasmodium falciparum [4], 850 nM in the data set with Plasmodium falciparum [5] and 255 µM with CHO. For the same compound, the selectivity ratio in data set [9] turned out to be 308. The “Ratio IC50” value in the data set with Plasmodium falciparum [10] was found to be 1.4.

Take `Nc1cc(NCCCCNc2ccnc3cc(Cl)ccc23)nc(N)n1`: the solubility in [1] stood at 1.04 µM (≈ 0.372 µg/mL); in [6], 0.19 µM (≈ 0.068 µg/mL); in [7], 2.91 µM (≈ 1.04 µg/mL); in data set [8] it was 0.94 µM (≈ 0.336 µg/mL). Besides, the logD in data set [2] (setting [12]) is 0.49; in [3] (setting [12]), -0.74. The IC50 in the data set on Plasmodium falciparum [4] turned out to be 1260 nM; with Plasmodium falciparum [5], 580 nM; in the data set with CHO, 162 µM. The selectivity ratio in data set [9] was 280. Besides, the “Ratio IC50” value in the data set on Plasmodium falciparum [10] came out at 2.2.

`Nc1cc(Nc2ccc(Nc3ccnc4cc(Cl)ccc34)cc2)nc(N)n1`: the solubility in data set [1] was 0.01 µM (≈ 0.00378 µg/mL); in data set [8] it was “ND(Insoluble)”. Also, the logD result in data set [2] (octanol/water) and in data set [3] (octanol/water) was “ND(Insoluble)” in each case. The IC50 came out at 107 nM in the data set on Plasmodium falciparum [4], 220 nM in the data set on Plasmodium falciparum [5] and 13.8 µM in the data set with CHO. The selectivity ratio in data set [9] is 63. Besides, in the data set on Plasmodium falciparum [10], the “Ratio IC50” value was 0.5.

As for `Nc1cc(N2CCN(c3ccnc4cc(Cl)ccc34)CC2)nc(N)n1`, the solubility in [1] came out at 0.66 µM (≈ 0.235 µg/mL); in data set [6] it was 0.07 µM (≈ 0.0249 µg/mL); in [8], 0.01 µM (≈ 0.00356 µg/mL). The logD entry was “ND(Insoluble)” in [2] (octanol/water) and -0.99 in [3] (setting [12]). Further, the IC50 amounted to 157 nM with Plasmodium falciparum [4], 70 nM in the data set on Plasmodium falciparum [5] and 146 µM with CHO. In addition, the selectivity ratio in data set [9] is 2070. In the data set with Plasmodium falciparum [10], the “Ratio IC50” value worked out at 2.4.

The compound `CC[C@H]1CN2CCc3cc(OC)c(OC)cc3[C@@H]2C[C@@H]1C[C@H]1NCCc2cc(OC)c(OC)cc21` [EMETINE] had an IC50 in the data set with CHO of 125 µM.

Usually pKa stands for the pH at which an ionisable group is half protonated. Turning to `CCc1nc(N)nc(N)c1-c1ccc(Cl)cc1` [PYRIMETHAMINE], in data set [11], the pKa was found to be 7.36. The solubility in [1] came out at 1.16 µM (≈ 0.289 µg/mL); in data set [6], 6.67 µM (≈ 1.66 µg/mL); in [7], 12.8 µM (≈ 3.19 µg/mL); in data set [8], 0.15 µM (≈ 0.0373 µg/mL). Further, the logD amounted to 1.93 in data set [2] (setting [12]) and 0.76 in data set [3] (setting [12]). For the same compound, the IC50 in the data set on Plasmodium falciparum [5] was determined as 70 nM.
